The source of these data is patent US20030003057A1, “Methods for administering leuprolide by inhalation” (priority 2000, published 2003).

This data set can be described thus: clinical. The settings on record: human, in vivo. The source says:
Capsules were bottled and the bottles individually enclosed in an appropriately labeled sealed foil pouch with desiccant and stored at room temperature. […] Subjects were instructed to inhale deeply and forcefully while wearing nose clips. Inhalations were followed by a 5 second breath hold prior to exhalation. […] Leuprolide was supplied in multiple dose vials as a sterile aqueous solution for injection. […] The pH was adjusted with sodium hydroxide or acetic acid. Prior to administration, each vial was visually inspected for particulate matter or discoloration. The leuprolide vials were stored at room temperature. […] The injection was given in the opposite arm to that used for blood sample for pharmacokinetic assessments. There were 2 dosing visits, followed by a post study medical 3 to 14 days after the last dose. The interval between doses was no less than 7 days. […] [table] Relative bioavailability: The bioavailability (BA) of the leuprolide formulation delivered from Turbospin, relative to intravenous injection of leuprolide, was determined from the ratio of log-transformed AUC values, according to the following equation, Relative BA=(InAUCPulmoSphere/InAUCiv) * (nominal dosePulmoSphere/doseiv), […]

Turning to `CCNC(=O)[C@@H]1CCCN1C(=O)[C@H](CCCNC(=N)N)NC(=O)[C@H](CC(C)C)NC(=O)[C@@H](CC(C)C)NC(=O)[C@H](Cc1ccc(O)cc1)NC(=O)[C@H](CO)NC(=O)[C@H](Cc1c[nH]c2ccccc12)NC(=O)[C@H](Cc1c[nH]cn1)NC(=O)[C@@H]1CCC(=O)N1` [leuprolide], the bioavailability is ~18%.
